Reference: patent US20260116868A1 (Arcus Biosciences, Inc., priority 2023, published 2026)

Biological target: T1, Cbl-b (Homo sapiens, UniProt Q13191)
T1 construct: biotin (biotinylated protein)
Experiment: Cbl-b probe displacement HTRF binding assay
Settings: 0.4 nM Cbl-b, 150 nM BODIPY probe
Outline: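 Compound competes with BODIPY probe (150 nM) for biotinylated Cbl-b (0.4 nM) in HEPES/NaCl/Triton/TCEP/BSA buffer; 60 min preincubation, 15 min with probe, room temperature. Tb-streptavidin HTRF read; % displacement vs DMSO and no-protein controls, IC50 from four-parameter fit.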

T1 sequence (Q13191 whole entry, species assumed): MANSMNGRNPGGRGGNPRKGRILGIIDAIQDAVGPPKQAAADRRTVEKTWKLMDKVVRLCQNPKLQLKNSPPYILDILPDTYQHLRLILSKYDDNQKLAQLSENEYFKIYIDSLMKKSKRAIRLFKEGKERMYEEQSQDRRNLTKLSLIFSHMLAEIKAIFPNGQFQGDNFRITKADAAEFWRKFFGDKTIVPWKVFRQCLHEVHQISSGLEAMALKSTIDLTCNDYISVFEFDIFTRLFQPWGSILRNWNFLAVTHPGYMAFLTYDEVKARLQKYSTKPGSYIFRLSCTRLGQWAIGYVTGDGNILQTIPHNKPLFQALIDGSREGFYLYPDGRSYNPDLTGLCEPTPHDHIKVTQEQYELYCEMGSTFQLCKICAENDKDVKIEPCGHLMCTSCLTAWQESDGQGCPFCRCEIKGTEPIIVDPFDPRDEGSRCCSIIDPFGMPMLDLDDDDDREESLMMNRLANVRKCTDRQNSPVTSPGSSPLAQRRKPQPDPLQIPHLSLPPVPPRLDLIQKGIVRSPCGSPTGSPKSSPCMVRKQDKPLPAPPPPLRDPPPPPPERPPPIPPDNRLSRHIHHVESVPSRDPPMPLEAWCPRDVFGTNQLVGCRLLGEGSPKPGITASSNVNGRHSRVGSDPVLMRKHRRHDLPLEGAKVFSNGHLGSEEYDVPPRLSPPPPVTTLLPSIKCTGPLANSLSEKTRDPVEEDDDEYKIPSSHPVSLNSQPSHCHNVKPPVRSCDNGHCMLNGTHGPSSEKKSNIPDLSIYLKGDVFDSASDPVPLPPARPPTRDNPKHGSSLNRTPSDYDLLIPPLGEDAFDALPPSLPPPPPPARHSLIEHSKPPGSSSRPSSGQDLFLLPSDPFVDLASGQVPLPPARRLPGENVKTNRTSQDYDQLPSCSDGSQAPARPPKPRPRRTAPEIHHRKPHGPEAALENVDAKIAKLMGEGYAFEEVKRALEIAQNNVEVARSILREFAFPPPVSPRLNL

| SMILES | IC50 [nM] |
| --- | --- |
| CC(C)CNCc1cc(C(=O)Nc2cc(-c3c(F)cc(C#N)cc3C(=O)N3CC(F)(F)C3)cc(OC(C)C)n2)c(=O)n(C2CC2)c1 [Example 128, N-(4-{4-cyano-2-[(3,3-difluoro-1-azetidinyl)carbonyl]-6-fluorophenyl}-6-isopropoxy-2-pyridyl)-1-cyclopropyl-5-[(isobutylamino)methyl]-2-oxo-1,2-dihydronicotinamide] | < 100 |
| CCOc1cc(-c2c(F)cc(Cl)cc2C(=O)N2CC(F)(F)C2)cc(NC(=O)c2cc(CNC[C@H](C)OC)cn(C3CC3)c2=O)n1 [Example 199] | < 100 |
| COc1ccc(-c2cc(NC(=O)c3cc(CN[C@@H](C)C4CCC4)cn(C)c3=O)nc(OC(C)C)c2)c(C(=O)N2CC(F)(F)C2)c1 [Example 292] | < 100 |
| CC(C)CNCc1cc(C(=O)Nc2cc(-c3ccc(OC(F)F)cc3C(=O)N3CC(F)(F)C3)cc(C3CC3)n2)c(=O)n(C)c1 [Example 109, N-[6-cyclopropyl-4-[2-(3,3-difluoroazetidine-1-carbonyl)-4-(difluoromethoxy)phenyl]pyridin-2-yl]-1-methyl-5-[(2-methylpropylamino)methyl]-2-oxopyridine-3-carboxamide] | < 100 |
| CCOc1cc(-c2ccc(C#N)cc2C(=O)N2CC(F)(F)C2)cc(NC(=O)c2cc(CNC[C@@H]3CCCO3)cn(C)c2=O)n1 [Example 183] | < 100 |
| CCOc1cc(-c2ccc(C#N)cc2C(=O)N2CC(F)(F)C2)cc(NC(=O)c2cc(CN[C@@H](C)C3CCC3)cn(C3CC3)c2=O)n1 [Example 196] | < 100 |
| CO[C@@H](C)CNCc1cc(C(=O)Nc2cc(-c3ccc(Cl)cc3C(=O)N3CC(C(F)(F)F)C3)cc(C3CC3)n2)c(=O)n(C2CC2)c1 [Example 157, N-[4-(4-Chloro-2-{[3-(trifluoromethyl)-1-azetidinyl]carbonyl}phenyl)-6-cyclopropyl-2-pyridyl]-1-cyclopropyl-5-{[(S)-2-methoxypropylamino]methyl}-2-oxo-1,2-dihydronicotinamide] | < 100 |
| CO[C@@H](C)CNCc1cc(C(=O)Nc2cc(-c3ccc(C#N)cc3C(=O)N3CC(F)(F)C3)cc(C3CC3)n2)c(=O)n(CC(F)(F)F)c1 [Example 174] | < 100 |
| CCOc1cc(-c2ccc(OC(F)F)cc2C(=O)N2CC(F)C2)cc(NC(=O)c2cc(CNCC(C)C)cn(C)c2=O)n1 [Example 286] | < 100 |
| CO[C@@H](C)CNCc1cc(C(=O)Nc2cc(-c3ccc(OC(F)F)cc3C(=O)N3CC(F)(F)C3)cc(OC(C)C)n2)c(=O)n(C)c1 [Example 113, N-(4-{2-[(3,3-difluoro-1-azetidinyl)carbonyl]-4-difluoromethoxyphenyl}-6-isopropoxy-2-pyridyl)-5-{[(S)-2-methoxypropylamino]methyl}-1-methyl-2-oxo-1,2-dihydronicotinamide] | < 100 |
| COc1ccc(-c2cc(NC(=O)c3cc(CN[C@@H](C)C4CCC4)cn(C4CC4)c3=O)nc(OCC(F)F)c2)c(C(=O)N2CC(F)(F)C2)c1 [Example 343] | < 100 |
| C[C@H]1CCCN(Cc2cc(C(=O)Nc3cc(-c4ccc(C#N)cc4C(=O)N4CC(F)(F)C4)cc(C4CC4)n3)c(=O)n(C3CC3)c2)C1 [Example 399] | < 100 |
| CC(C)Oc1cc(-c2c(F)cc(C#N)cc2C(=O)N2CC(F)(F)C2)cc(NC(=O)c2cc(CNC[C@@H]3CCCO3)cn(C3CC3)c2=O)n1 [Example 101, N-[4-[4-cyano-2-(3,3-difluoroazetidine-1-carbonyl)-6-fluorophenyl]-6-propan-2-yloxypyridin-2-yl]-1-cyclopropyl-2-oxo-5-[[[(2S)-oxolan-2-yl]methylamino]methyl]pyridine-3-carboxamide] | < 100 |
| C[C@H](NCc1cc(C(=O)Nc2cc(-c3ccc(C#N)cc3C(=O)N3CC(F)(F)C3)cc(C3CC3)n2)c(=O)n(C2CC2)c1)C1CCCO1 (stereo partly drawn) [Example 376] | < 100 |
| CO[C@@H](C)CNCc1cc(C(=O)Nc2cc(-c3c(F)cc(C#N)cc3C(=O)N3CC(F)(F)C3)cc(C3CC3)n2)c(=O)n(C2CC2)c1 [Example 224] | < 100 |
| CO[C@@H](C)CNCc1cc(C(=O)Nc2cc(-c3c(F)cc(Cl)cc3C(=O)N3CC(F)(F)C3)cc(C3CC3)n2)c(=O)n(C)c1 [Example 177] | < 100 |
| CO[C@@H](C)CNCc1cc(C(=O)Nc2cc(-c3ccc(OC(F)F)cc3C(=O)N3CC(F)(F)C3)cc(C3CC3)n2)c(=O)n(C)c1 [Example 176] | < 100 |
| CO[C@@H](C)CNCc1cc(C(=O)Nc2cc(-c3ccc(Cl)cc3C(=O)N3CC(F)(F)C3)cc(OCC(F)(F)F)n2)c(=O)n(C2CC2)c1 [Example 163] | < 100 |
| CCOc1cc(-c2c(F)cc(Cl)cc2C(=O)N2CC(F)(F)C2)cc(NC(=O)c2cc(CN[C@@H](C)C3CCC3)cn(C3CC3)c2=O)n1 [Example 207] | < 100 |
| N#Cc1ccc(-c2cc(NC(=O)c3cc(CNCC4(F)CCC4)cn(C4CC4)c3=O)nc(C3CC3)c2)c(C(=O)N2CC(F)(F)C2)c1 [Example 400] | < 100 |
| COCCNCc1cc(C(=O)Nc2cc(-c3ccc(C#N)cc3C(=O)N3CC(F)(F)C3)cc(C3CC3)n2)c(=O)n(CC(F)(F)F)c1 [Example 194] | < 100 |
| COc1ccc(-c2cc(NC(=O)c3cc(CN[C@@H](C)C4CCC4)cn(C4CC4)c3=O)nc(OC(C)C)c2)c(C(=O)N2CC(F)(F)C2)c1 [Example 276] | < 100 |
| CO[C@@H](C)CNCc1cc(C(=O)Nc2cc(-c3ccc(Cl)cc3C(=O)N3CC(C)C3)cc(C3CC3)n2)c(=O)n(C2CC2)c1 [Example 159, N-(4-{4-Chloro-2-[(3-methyl-1-azetidinyl)carbonyl]phenyl}-6-cyclopropyl-2-pyridyl)-1-cyclopropyl-5-{[(S)-2-methoxypropylamino]methyl}-2-oxo-1,2-dihydronicotinamide] | < 100 |

| SMILES | IC50 [nM] |
| --- | --- |
| CC(C)CNCc1cc(C(=O)Nc2cc(-c3ccc(C#N)cc3C(=O)N3CC(F)(F)C3)cc(C3CC3)n2)c(=O)n(C)c1 [Example 175] | < 100 |
| COCCNCc1cc(C(=O)Nc2cc(-c3ccc(F)cc3C(=O)N3CC(F)C3)cc(C3CC3)n2)c(=O)n(C2CC2)c1 [Example 404] | < 100 |
| COCCNCc1cc(C(=O)Nc2cc(-c3ccc(C#N)cc3C(=O)N3CC(F)(F)C3)cc(C3CC3)n2)c(=O)n(C2CC2)c1 [Example 374] | < 100 |
| C[C@H](NCc1cc(C(=O)Nc2cc(-c3ccc(OC(F)F)cc3C(=O)N3CC(F)(F)C3)cc(C3CC3)n2)c(=O)n(C2CC2)c1)C1CCC1 [Example 327] | < 100 |
| CO[C@@H](C)CNCc1cc(C(=O)Nc2cc(-c3ccc(Cl)cc3C(=O)N3CC(F)(F)C3)cc(NC(C)C)n2)c(=O)n(C2CC2)c1 [Example 217] | < 100 |
| CC(C)Oc1cc(-c2ccc(Cl)cc2C(=O)N2CC(F)C2)cc(NC(=O)c2cc(CN[C@@H](C)C3CC3)cn(C3CC3)c2=O)n1 [Example 264] | < 100 |
| CO[C@@H](C)CNCc1cc(C(=O)Nc2cc(-c3ccc(C#N)cc3C(=O)N3CC(F)C3)cc(OC(C)C)n2)c(=O)n(C)c1 [Example 265] | < 100 |
| CC(C)Oc1cc(-c2ccc(OC(F)F)cc2C(=O)N2CC(F)C2)cc(NC(=O)c2cc(CNC[C@@H]3CCCO3)cn(C)c2=O)n1 [Example 297] | < 100 |
| N#Cc1ccc(-c2cc(NC(=O)c3cc(CNC[C@@H]4CCOC4)cn(C4CC4)c3=O)nc(C3CC3)c2)c(C(=O)N2CC(F)(F)C2)c1 [Example 412] | < 100 |
| CO[C@H]1CCC[C@@H]1NCc1cc(C(=O)Nc2cc(-c3ccc(C#N)cc3C(=O)N3CC(F)(F)C3)cc(C3CC3)n2)c(=O)n(C2CC2)c1 [Example 363] | < 100 |
| COC[C@H](C)NCc1cc(C(=O)Nc2cc(-c3ccc(C#N)cc3C(=O)N3CC(F)(F)C3)cc(C3CC3)n2)c(=O)n(C)c1 [Example 171] | < 100 |
| CC(C)Oc1cc(-c2ccc(C#N)cc2C(=O)N2CC(F)(F)C2)cc(NC(=O)c2cc(CNC[C@@H]3COCCO3)cn(C)c2=O)n1 [Example 386] | < 100 |
| Cn1cc(CNCC2CC2)cc(C(=O)Nc2cc(-c3ccc(C#N)cc3C(=O)N3CC(F)(F)C3)cc(C3CC3)n2)c1=O [Example 192] | < 100 |
| N#Cc1ccc(-c2cc(NC(=O)c3cc(CNC[C@@H]4CCCCO4)cn(C4CC4)c3=O)nc(C3CC3)c2)c(C(=O)N2CC(F)(F)C2)c1 [Example 366] | < 100 |
| CO[C@@H](C)CNCc1cc(C(=O)Nc2cc(-c3ccc(C)cc3C(=O)N3CC(F)C3)cc(OC(C)C)n2)c(=O)n(C2CC2)c1 [Example 290] | < 100 |
| CO[C@@H](C)CNCc1cc(C(=O)Nc2cc(-c3ccc(Cl)cc3C(=O)N3CC(C#N)C3)cc(C3CC3)n2)c(=O)n(C2CC2)c1 [Example 155, N-(4-{4-Chloro-2-[(3-cyano-1-azetidinyl)carbonyl]phenyl}-6-cyclopropyl-2-pyridyl)-1-cyclopropyl-5-{[(S)-2-methoxypropylamino]methyl}-2-oxo-1,2-dihydronicotinamide] | < 100 |
| CO[C@@H](C)CNCc1cc(C(=O)Nc2cc(-c3cc(Cl)c(Cl)cc3C(=O)N3CC(F)(F)C3)cc(C3CC3)n2)c(=O)n(C2CC2)c1 [Example 411] | < 100 |
| CC(C)Oc1cc(-c2c(F)cc(C#N)cc2C(=O)N2CC(F)(F)C2)cc(NC(=O)c2cc(CN[C@@H](C)C3CCC3)cn(C3CC3)c2=O)n1 [Example 126] | < 100 |
| CCOc1cc(-c2c(F)cc(C#N)cc2C(=O)N2CC(F)(F)C2)cc(NC(=O)c2cc(CNC[C@H](C)OC)cn(C)c2=O)n1 [Example 120, N-[4-[4-cyano-2-(3,3-difluoroazetidine-1-carbonyl)-6-fluorophenyl]-6-ethoxypyridin-2-yl]-5-[[[(2S)-2-methoxypropyl]amino]methyl]-1-methyl-2-oxopyridine-3-carboxamide] | < 100 |
| CC(C)CNCc1cc(C(=O)Nc2cc(-c3ccc(OC(F)F)cc3C(=O)N3CC(F)C3)cc(OC(C)C)n2)c(=O)n(C)c1 [Example 294] | < 100 |
| N#Cc1ccc(-c2cc(NC(=O)c3cc(CNC[C@@H]4CCCO4)cn(C4CC4)c3=O)nc(OC(F)F)c2)c(C(=O)N2CC(F)(F)C2)c1 [Example 341] | < 100 |
| CC(C)Oc1cc(-c2ccc(OC(F)F)cc2C(=O)N2CC(F)(F)C2)cc(NC(=O)c2cc(CN[C@@H](C)C(C)C)cn(C)c2=O)n1 [Example 114] | < 100 |
